Source: ChEMBL document CHEMBL3621158, “Synthesis of new betulinic acidpeptide conjugates and in vivo and in silico studies of the influence of peptide moieties on the triterpenoid core activity” (2015)

Experiments:
Type in all cases: functional
[1] = tested on: Mus musculus; assay: Anti-inflammatory activity in mouse model of histamine-induced paw edema assessed as inhibition of inflammation at 50 mg/kg, ip dosed 1 hr before histamine injection
[2] = tested on: Mus musculus; assay: Anti-inflammatory activity in mouse model of histamine-induced paw edema assessed as inhibition of inflammation at 50 mg/kg, ip dosed 1 hr before histamine injection relative to 50 mg/kg, ip indomethacin
[3] = tested on: Mus musculus; assay: Anti-inflammatory activity in mouse model of histamine-induced paw edema assessed as inhibition of inflammation at 20 mg/kg, po dosed 1 hr before histamine injection

| Compound | inhibition in vivo at 50 mg/kg [1] | inhibition in vivo at 50 mg/kg [2] | inhibition in vivo at 20 mg/kg [3] |
| --- | --- | --- | --- |
| C=C(C)[C@@H]1CC[C@]2(C(=O)O)CC[C@]3(C)[C@H](CC[C@@H]4[C@@]5(C)CC[C@@](O)(c6cn(C[C@H](Cc7ccccc7)N(C(=O)[C@H](CO)NC(=O)OC(C)(C)C)C(=O)C(C)(C)NCc7ccc(OC)cc7OC)nn6)C(C)(C)[C@@H]5CC[C@]43C)[C@@H]12 | 23% | 55% | – |
| COc1ccc2c(c1)c(CC(=O)O)c(C)n2C(=O)c1ccc(Cl)cc1 [INDOMETHACIN] | 42% | 78% | 32.8% |
| C=C(C)[C@@H]1CC[C@]2(C(=O)O)CC[C@]3(C)[C@H](CC[C@@H]4[C@@]5(C)CC[C@@](O)(c6cn(CCNC(=O)C(C)(C)N(Cc7ccc(OC)cc7OC)C(=O)[C@H](Cc7c[nH]cn7)NC(=O)OC(C)(C)C)nn6)C(C)(C)[C@@H]5CC[C@]43C)[C@@H]12 | 33.4% | 79% | – |
| C=C(C)[C@@H]1CC[C@]2(C(=O)O)CC[C@]3(C)[C@H](CC[C@@H]4[C@@]5(C)CC[C@@](O)(c6cn(C[C@H](C)N(C(=O)[C@@H](NC(=O)OC(C)(C)C)[C@@H](C)CC)C(=O)C(C)(C)NCc7ccc(OC)cc7OC)nn6)C(C)(C)[C@@H]5CC[C@]43C)[C@@H]12 | 31.2% | 74.3% | – |
| C#C[C@]1(O)CC[C@]2(C)[C@H]3CC[C@@H]4[C@H]5[C@H](C(=C)C)CC[C@]5(C(=O)O)CC[C@@]4(C)[C@]3(C)CC[C@H]2C1(C)C | 25.2% | 60% | – |
| C=C(C)[C@@H]1CC[C@]2(C(=O)O)CC[C@]3(C)[C@H](CC[C@@H]4[C@@]5(C)CC[C@](O)(c6cn(C[C@H](C)N(C(=O)[C@@H](NC(=O)OC(C)(C)C)[C@@H](C)CC)C(=O)C(C)(C)NCc7ccc(OC)cc7OC)nn6)C(C)(C)[C@@H]5CC[C@]43C)[C@@H]12 | 14.5% | 34.5% | – |
| C=C(C)[C@@H]1CC[C@]2(C(=O)O)CC[C@]3(C)[C@H](CC[C@@H]4[C@@]5(C)CC[C@@](O)(c6cn(C[C@H](C)N(C(=O)[C@H](Cc7ccccc7)NC(=O)OC(C)(C)C)C(=O)C(C)(C)NCc7ccc(OC)cc7OC)nn6)C(C)(C)[C@@H]5CC[C@]43C)[C@@H]12 | 2.5% | 6% | – |
| C=C(C)[C@@H]1CC[C@]2(C(=O)O)CC[C@]3(C)[C@H](CC[C@@H]4[C@@]5(C)CC[C@@](O)(c6cn(C[C@H](Cc7ccccc7)N(C(=O)[C@H](Cc7cc8ccccc8[nH]7)NC(=O)OC(C)(C)C)C(=O)C(C)(C)NCc7ccc(OC)cc7OC)nn6)C(C)(C)[C@@H]5CC[C@]43C)[C@@H]12 | 38.8% | 92% | – |
